How the values were obtained:
human respiratory tract [1] = test: Metabospace: real-time APCI-MS analysis of exhaled breath after inhalation of saturated headspace of test compound; type: in vivo; details: for decrease of mass chromatogram signal intensity as a function of inhalation/exhalation cycles (release in exhaled breath): after nasal inhalation of the substrate, about 30 inhalation/exhalation cycles
Experimental: The “Metabospace” technology allows real-time detection and analysis of in vivo generated metabolites (exhaled volatiles) starting from compounds of interest. First, a test subject inhales the saturated headspace of a volatile compound. The saturated headspace may be provided as described in the examples herein-below. The breath is exhaled directly into a glass funnel, which works as interface to an analysis device where mass spectra are recorded by a quadrupole mass spectrometer equipped with an atmospheric pressure chemical ionization (APCI) ion source with a modified interface which allows the measurement of fast dynamic changes of volatiles as described in Grab, W., and Gfeller, H. In: ACS Symposium Series 763—Flavor Release (Roberts, D. D., and Taylor, A. J., Eds.) American Chemical Society, Washington, D.C. (2002). The procedure may be performed for example as described further in the examples herein below.
Mass spectrum scans detect the entire range of pseudomolecular ions as well as ions of fragments of molecules. If candidate metabolites are already known, e.g. from in vitro data, the mass chromatogram corresponding to the pseudomolecular ion can be directly visualized together with the chromatogram for the substrate. Acetone is always present in human breath and can be used to show the respiration pattern. Mass spectrum scans of volatiles either exhaled from the nasal or the oral cavity are recorded in narrow time spans, for example twice per second, to follow changes in breath composition as a function of time and respiration cycles. Usually, a series of scans are done to detect other ions that may be linked to the substrate and/or metabolites, which can e.g. be derived from fragments of the substrate and/or the metabolites, as is well-known to the person skilled in the art. Various mass spectrum scans are performed as is well known in the art. In the present invention, a large number of mass spectrum scans are be recorded by the mass spectrometer (for example 2 scans per second). The total ion chromatogram (TIC) gives the total of signals. Individual signals, e.g. the pseudomolecular ion [M+H]^+ for acetone at m/z 59, may be singled out and analysed over time in so-called “mass chromatograms”. Metabolites appear as additional signals in scans, and specific signals are followed over time in respective mass chromatograms. During the first inhalation/exhalation cycles, scans are analysed for ions which are present in exhalations following the inhalation of surrounding air (blank, background) and are not derived from the test compound or from metabolites. It is well known in the art how to identify unknown signals. Depending on the chemistry of the test compound and the possible metabolic reactions which can take place, particular ions are expected to occur if such metabolism takes place. To narrow down the possibilities, a hypothesis based on the test compound (enzyme substrate) and potential biotransformation reactions resulting in metabolites is used. For example, metabolites that result from reactions of the test compound with oxidizing enzymes belonging to the group of CYP enzymes may undergo metabolism including hydroxylation or epoxidation reactions, and specific signals for such metabolites may be generally found at the m/z number of the substrate plus 16. […]

[2] = target: T1, nasal metabolic enzyme CYP2A13 (Homo sapiens, UniProt Q16696); test: Metabospace with volatile suppressor inhaled immediately prior to test compound; type: in vivo; details: suppressor (inhibitor of CYP2A13) inhaled immediately prior to test compound; compared with runs without suppressor
T1 construct: from tissue; host or cells: nasal cavity / respiratory tract of a living test subject
T1 sequence (Q16696 1-494): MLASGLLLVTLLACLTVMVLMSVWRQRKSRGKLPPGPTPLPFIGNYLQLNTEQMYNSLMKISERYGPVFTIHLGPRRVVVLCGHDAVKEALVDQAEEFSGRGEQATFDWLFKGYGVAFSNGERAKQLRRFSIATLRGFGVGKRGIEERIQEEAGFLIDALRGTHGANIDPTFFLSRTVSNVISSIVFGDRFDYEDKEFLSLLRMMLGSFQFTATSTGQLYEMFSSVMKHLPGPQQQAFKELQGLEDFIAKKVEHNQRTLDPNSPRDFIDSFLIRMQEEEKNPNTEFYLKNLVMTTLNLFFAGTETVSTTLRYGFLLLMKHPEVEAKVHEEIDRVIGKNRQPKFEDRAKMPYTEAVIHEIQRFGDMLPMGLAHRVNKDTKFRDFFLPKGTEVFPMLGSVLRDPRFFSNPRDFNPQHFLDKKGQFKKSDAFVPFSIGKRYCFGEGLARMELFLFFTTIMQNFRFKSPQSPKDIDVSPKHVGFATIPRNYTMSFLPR
Experimental: A volatile suppressor compound (inhibitor of nasal metabolic enzyme CYP2A13) is inhaled immediately prior to the inhalation of the test compound 2-methoxyacetophenone.
The test subject performs three runs in a row: (1) test compound only; (2) suppressor followed by test compound; (3) test compound only. Before and between runs, blank controls are recorded (inhalation of room air and recording of 30 inhalation/exhalation cycles).
The procedure is performed as described in example 6A, however, as a test compound ketanone is used and ketanone and its metabolite 4-(4-hydroxyphenyl)butan-2-one (raspberry ketone) are detected as described in example 5.

human respiratory tract [3] = test: Metabo-GM: exhaled breath trapped on Tenax TA resin, thermodesorption, GC-MS; type: in vivo
olfactory perception = details: cited from earlier work; for olfactory threshold / odour intensity: raspberry aroma, Winter (1961) Helv. Chim. Acta 44:2110
carboxyl esterase = test: Metabo-GM with inhibitor of carboxyl esterase as suppressor inhaled before test compound; type: in vivo, human; details: for proportion of detected metabolite with suppressor compared to analysis without suppressor: carboxyl esterase inhibitor inhaled first, then test compound; for metabolite detected in exhaled breath by GC-MS: without suppressor
Experimental: The procedure is performed as described in examples 7 and 10 subject to the following modifications:
As suppressor, an inhibitor for carboxyl esterase is used. As test compound, phenethylacetate is used, which is a substrate for carboxyl esterase.
The procedure is performed as described in example 12A with an inhibitor for carboxyl esterase as suppressor, subject to the following modifications:
As test compound, styrallylacetate is used, which is a substrate for carboxyl esterase.

carboxyl esterases = test: Cascade Olfactometer: perceived odour intensity and olfactory threshold of odorant with modulator (inhibitor of carboxyl esterases); type: in vivo, human
Experimental: A modulator is identified using an Olfactometer. As reference test compounds, odorant esters are used. A second test compound (potential modulator, modulator test compound) is tested in combination with these odorant test compounds. The odorant reference test compound is kept at a constant concentration with the modulator concentration being varied.
If metabolism is taking place, the amount of styrallylacetate which is stimulating the olfactory system is decreased.
A standard concentration (appropriate dilution of saturated headspace) of the odorant test compound is provided in one Olfactometer (cascade 1) as the reference, while in the second olfactometer (cascade 2) the odorant test compound is provided at the standard concentration supplemented with various concentrations of the modulator (appropriate dilutions of saturated headspace).
First, the threshold for the odorant styrallylacetate is determined for each test subject. The standard concentration is chosen so that it is perceived to be of week to moderate intensity as judged by each test subject.
The concentrations of the modulator test compound are chosen to be below the olfactory threshold of the test subject.
A sample is provided as headspace in a saturation chamber. The flow from said chamber is added to a carrier gas supply and mixed in a chamber which is connected with the sniffing port where a test subject detects the stimulus. Said flow (the headspace of the sample before addition to the carrier) is determined and adjusted so that the test subject rates said flow as medium intensity. This is the reference that is used in cascade 1. For styrallylacetate, a flow of 20 ml/min of the odorant is used. […]
The effect of the modulator on the olfactory threshold of styrallylacetate is determined in as follows. […]
Alternatively, a dose response curve is recorded using one olfactometer (Cascade 2) by providing samples above and below the detected olfactory threshold of the test subjects. This is compared to the known threshold of the compound which is recorded beforehand. […]

[4] = inhalation and exhalation both through the mouth

SMILES | decrease of mass chromatogram signal intensity as a function of inhalation/exhalation cycles (release in exhaled breath) (human respiratory tract [1]) | metabolite signal in exhaled breath in presence of suppressor [2] | amount of metabolite detected in exhaled breath by GC-MS (human respiratory tract [3]; [4]) | olfactory threshold / odour intensity (olfactory perception) | proportion of detected metabolite with suppressor compared to analysis without suppressor (carboxyl esterase) | metabolite detected in exhaled breath by GC-MS (carboxyl esterase) | also measured
O=C(CO)c1ccccc1 [2-hydroxyacetophenone] | still near maximal intensity after 30 inhalation/exhalation recordings | – | – | – | – | – | –
COCC(=O)c1ccccc1 [2-methoxyacetophenone] | decreases relatively quickly, within about 30 inhalation/exhalation cycles | considerably less metabolite is formed in presence of the suppressor | only in a small amount barely detectable | – | – | – | metabolite signal in exhaled breath (human respiratory tract [1]; first variant: inhalation and exhalation both through the mouth): no signal corresponding to the metabolite is detected; amount of metabolite detected in exhaled breath by GC-MS (human respiratory tract [3]; inhalation through the mouth, exhalation through the nose): significantly more metabolite is detected
CC(=O)CCc1ccc(O)cc1 [4-(4-hydroxyphenyl)butan-2-one] | – | – | – | very low olfactory threshold | – | – | –
COc1ccc(CCC(C)=O)cc1 [ketanone] | retarded release of the more hydrophilic metabolite is observed | significantly decreased signal intensity for the metabolite | – | significantly less intense | – | – | metabolite detected in exhaled breath (mass chromatogram signal) (human respiratory tract [1]; inhalation and exhalation through the nose, human test subject): a compound is detected at m/z 165 which corresponds to 4(4-hydroxyphenyl)butan-2-one (raspberry ketone)
CC(=O)OCCc1ccccc1 [phenethylacetate] | – | – | – | – | about 50% | phenethylalcohol is detected | –
CC(=O)OC(C)c1ccccc1 (stereo not drawn) [styrallylacetate] | – | – | Less styrallylalcohol (metabolite) is detected | – | significantly lower | styrallylalcohol is detected | metabolite detected in exhaled breath by GC-MS (human respiratory tract [3]; inhalation and exhalation through the nose): Significant amounts of styrallylalcohol and acetic acid (metabolites) are detected; olfactory threshold combined with modulator versus odorant alone (carboxyl esterases; dose response curve, one olfactometer, modulator constant): lower than the determined olfactory threshold for styrallylacetate alone; perceived intensity of the odorant in presence of the potential modulator (carboxyl esterases; odorant flow 20 ml/min constant, modulator flow varied 1 to 900 ml/min, below its olfactory threshold, versus reference without modulator): intensity of the odorant is increased; odour intensity in presence of modulator versus reference (JND protocol) (carboxyl esterases; styrallylacetate 20 ml/min in both cascades, modulator 5 ml/min in cascade 2): stronger than the reference concentration; olfactory threshold relative to its metabolite (olfactory perception; compared with styrallylalcohol): lower threshold than its metabolite styrallylalcohol

From patent US7638343B2, “Method to identify or evaluate compounds useful in the field of fragrances and aromas” (priority 2004, dated 2009)
